Data as given in patent publication US20250288590A1, “DRUG SUSTAINED-RELEASE TABLET FOR TREATING LIVER DISEASE, PREPARATION METHOD THEREFOR AND USE THEREOF” (CHANGCHUN INTELLICROWN PHARMACEUTICAL CO., LTD., priority 2022, published 2025).

Tests used:
[1] = rat pharmacokinetic studies, oral administration; assay type: in vivo; conditions: rats
[2] = pharmacokinetics in Beagle dogs, oral administration of the compound; assay type: in vivo
[3] = solubility, pH dependence; assay type: physicochemical; conditions: mesylate; increasing pH

Question: What does the source list for COC(=O)c1cc(OC)c2c(c1-c1c(CN3CCOCC3)cc(OC)c3c1OCO3)OCO2 [IMM-H014, methyl 7,7′-dimethoxy-5′-(morpholinomethyl)-[4,4′-bibenzo[d][1,3]dioxole]-5-carboxylate]?
Answer: bioavailability ([1]; rat, blood, oral): 96.3%; half-life ([1]; rat, blood, oral administration, read-out: elimination half-life (converted)): ~1.8 h; peak blood concentration (time) ([1]; oral administration): 0.5 h; half-life ([2]; dog, blood, Beagle dogs, read-out: elimination half-life (converted)): ~3.5 h; time to peak blood concentration (Tmax) ([2]; dogs): 0.5 h; solubility (pH-dependent) [3]: as the pH increases, the solubility gradually decreases
